Assay [1] concerns the target T1, A disintegrin and metalloproteinase with thrombospondin motifs 5 (Homo sapiens, UniProt Q9UNA0).
T1 sequence (Q9UNA0 whole entry): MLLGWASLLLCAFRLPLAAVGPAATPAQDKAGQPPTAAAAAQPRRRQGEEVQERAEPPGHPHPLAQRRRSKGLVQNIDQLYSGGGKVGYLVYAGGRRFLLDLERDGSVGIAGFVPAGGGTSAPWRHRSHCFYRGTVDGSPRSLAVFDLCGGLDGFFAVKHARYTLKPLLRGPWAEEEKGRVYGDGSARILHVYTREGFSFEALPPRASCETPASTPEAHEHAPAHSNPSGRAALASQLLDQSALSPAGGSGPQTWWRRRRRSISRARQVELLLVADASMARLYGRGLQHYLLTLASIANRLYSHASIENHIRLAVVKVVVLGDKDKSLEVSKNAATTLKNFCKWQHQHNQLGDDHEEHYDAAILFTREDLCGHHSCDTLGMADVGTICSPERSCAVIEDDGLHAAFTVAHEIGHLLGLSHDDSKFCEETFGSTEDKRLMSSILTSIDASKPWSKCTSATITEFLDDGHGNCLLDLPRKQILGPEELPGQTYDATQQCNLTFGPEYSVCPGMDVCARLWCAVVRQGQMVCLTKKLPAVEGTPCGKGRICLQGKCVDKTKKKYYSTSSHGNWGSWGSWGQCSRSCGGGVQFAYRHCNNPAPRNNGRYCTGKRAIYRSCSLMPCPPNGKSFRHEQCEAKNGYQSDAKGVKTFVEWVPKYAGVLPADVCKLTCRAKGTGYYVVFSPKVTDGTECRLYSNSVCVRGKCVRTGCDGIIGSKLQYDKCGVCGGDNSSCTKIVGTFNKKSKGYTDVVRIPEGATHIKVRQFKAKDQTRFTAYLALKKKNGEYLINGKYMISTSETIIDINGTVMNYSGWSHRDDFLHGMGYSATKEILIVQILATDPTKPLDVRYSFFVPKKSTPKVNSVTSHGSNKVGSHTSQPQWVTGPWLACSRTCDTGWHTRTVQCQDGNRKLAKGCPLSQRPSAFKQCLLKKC
In words: Inhibition of recombinant aggrecanase 2.

Assay [2] deals with T2, A disintegrin and metalloproteinase with thrombospondin motifs 5 (Homo sapiens) (UniProt Q9UNA0).
T2 sequence (whole entry): T1 sequence (Q9UNA0 whole entry)
Briefly: Inhibition of recombinant aggrecanase 2 at 10 uM.

Assay [3] concerns the target T3, Interstitial collagenase (Homo sapiens) (UniProt P03956).
T3 sequence (whole entry): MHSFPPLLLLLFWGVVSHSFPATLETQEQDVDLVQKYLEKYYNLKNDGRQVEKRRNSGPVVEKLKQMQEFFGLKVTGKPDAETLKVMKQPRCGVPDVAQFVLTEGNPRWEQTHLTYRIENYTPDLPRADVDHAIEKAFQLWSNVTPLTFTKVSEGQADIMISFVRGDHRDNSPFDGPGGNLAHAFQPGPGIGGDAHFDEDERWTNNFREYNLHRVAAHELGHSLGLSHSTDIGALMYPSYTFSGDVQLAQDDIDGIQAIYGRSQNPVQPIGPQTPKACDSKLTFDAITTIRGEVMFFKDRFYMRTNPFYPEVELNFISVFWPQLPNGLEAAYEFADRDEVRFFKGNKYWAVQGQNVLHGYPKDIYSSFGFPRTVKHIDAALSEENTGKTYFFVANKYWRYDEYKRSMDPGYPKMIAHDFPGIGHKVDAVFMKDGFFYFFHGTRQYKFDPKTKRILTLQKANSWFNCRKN
In words: Inhibition of MMP1 at 10 uM.

The target in assay [4] is Disintegrin and metalloproteinase domain-containing protein 17 (Homo sapiens) (UniProt P78536). In words: Inhibition of TACE at 10 uM.
Sequence of Disintegrin and metalloproteinase domain-containing protein 17 (Homo sapiens) (P78536 whole entry, the tested form may be a part): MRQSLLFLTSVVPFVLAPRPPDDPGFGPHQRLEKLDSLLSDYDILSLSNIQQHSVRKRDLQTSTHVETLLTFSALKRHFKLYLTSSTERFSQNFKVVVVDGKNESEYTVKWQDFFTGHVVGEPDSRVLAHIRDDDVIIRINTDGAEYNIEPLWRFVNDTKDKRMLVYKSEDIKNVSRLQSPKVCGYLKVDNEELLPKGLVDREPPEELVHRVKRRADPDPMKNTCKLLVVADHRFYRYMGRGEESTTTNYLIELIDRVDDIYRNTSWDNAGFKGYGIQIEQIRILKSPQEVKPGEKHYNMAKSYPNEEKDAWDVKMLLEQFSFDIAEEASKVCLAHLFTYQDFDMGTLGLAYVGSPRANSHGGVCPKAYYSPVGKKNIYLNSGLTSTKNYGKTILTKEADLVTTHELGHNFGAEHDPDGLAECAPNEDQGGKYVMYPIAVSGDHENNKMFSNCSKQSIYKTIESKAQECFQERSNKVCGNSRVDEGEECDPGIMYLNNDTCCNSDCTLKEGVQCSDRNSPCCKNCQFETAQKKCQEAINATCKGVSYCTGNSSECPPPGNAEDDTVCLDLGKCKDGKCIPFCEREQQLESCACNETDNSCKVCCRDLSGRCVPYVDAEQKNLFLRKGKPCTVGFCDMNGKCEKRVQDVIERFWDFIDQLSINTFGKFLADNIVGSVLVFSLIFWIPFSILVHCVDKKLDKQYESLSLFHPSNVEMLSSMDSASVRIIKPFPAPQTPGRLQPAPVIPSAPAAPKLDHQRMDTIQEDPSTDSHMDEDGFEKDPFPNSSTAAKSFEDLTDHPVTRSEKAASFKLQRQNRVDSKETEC

Active and inactive are the calls of the source. The rule behind the calls is not given here.

Here are results for 35 compounds from ChEMBL document CHEMBL1153928, “Novel N-substituted 2-phenyl-1-sulfonylamino-cyclopropane carboxylates as selective ADAMTS-5 (Aggrecanase-2) inhibitors” (Bioorg Med Chem Lett, 2009).

Take `O=C1CCCN1CCN([C@]1(C(=O)O)C[C@H]1c1ccccc1)S(=O)(=O)N1CC=C(c2ccc(Cl)cc2)CC1`: the IC50 (in general, the midpoint of a concentration-inhibition curve) in assay [1] is 880 nM.
Take `COCC#Cc1ccc(S(=O)(=O)N(CCN2CCCC2=O)[C@]2(C(=O)O)C[C@H]2c2ccccc2)cc1`: the inhibition (in general, the change of the read-out against control, counted positive when it falls) in assay [2] was determined as 2.9%.
Same read-out and setting: in the case of `O=C(O)[C@@H](Cc1ccccc1)N(CC1CC1)S(=O)(=O)c1ccc(-c2ccc(Cl)cc2)cc1` it was 46%.
Take `O=C(O)[C@@]1(N(CCn2cnnn2)S(=O)(=O)c2ccc(-c3ccc(Cl)cc3)cc2)C[C@H]1c1ccccc1`: the outcome in assay [3] and in assay [4] was inactive. Also, the IC50 in assay [1] is 270 nM.
As to `O=C1CCCN1CCN([C@]1(C(=O)O)C[C@H]1c1ccccc1)S(=O)(=O)c1ccc(C#CCO)cc1`, the inhibition in assay [2] is -1.5%.
As for `O=C1CCCN1CCN([C@]1(C(=O)O)C[C@H]1c1ccccc1)S(=O)(=O)c1ccc(-c2ccc(Cl)cc2)nc1`, in assay [1], the IC50 is 1100 nM.
Regarding `O=C(O)[C@@]1(N(CCc2cccnc2)S(=O)(=O)c2ccc(-c3ccc(Cl)cc3)cc2)C[C@H]1c1ccccc1`, the outcome in assay [3] and in assay [4] was inactive. Further, in assay [1], the concentration for half-maximal inhibition (IC50) was 290 nM.
Regarding `O=C(O)[C@@]1(N(CCc2ccccn2)S(=O)(=O)c2ccc(-c3ccc(Cl)cc3)cc2)C[C@H]1c1ccccc1`, the result in assay [3] and in assay [4] was inactive. Further, the IC50 in assay [1] came to 820 nM.
With `O=C1CCCCN1CCN([C@]1(C(=O)O)C[C@H]1c1ccccc1)S(=O)(=O)c1ccc(-c2ccc(Cl)cc2)cc1`, the outcome in assay [3] and in assay [4] was inactive. The IC50 in assay [1] stood at 210 nM.
On to `CN(C)c1ccc(-c2ccc(S(=O)(=O)N(CCN3CCCC3=O)[C@]3(C(=O)O)C[C@H]3c3ccccc3)cc2)cc1`, for which the IC50 in assay [1] stood at 6600 nM.
On to `O=C1OCCN1CCN([C@]1(C(=O)O)C[C@H]1c1ccccc1)S(=O)(=O)c1ccc(-c2ccc(Cl)cc2)cc1`, for which the outcome in assay [3] and in assay [4] was inactive. Moreover, the IC50 in assay [1] stood at 220 nM.
For the compound `O=C(O)[C@@]1(N(CCn2cnc3ncncc32)S(=O)(=O)c2ccc(-c3ccc(Cl)cc3)cc2)C[C@H]1c1ccccc1`, the outcome in assay [3] and in assay [4] was inactive. In assay [1], the IC50 came to 71 nM.
For the compound `CN([C@H](Cc1ccccc1)C(=O)O)S(=O)(=O)c1ccc(-c2ccc(Cl)cc2)cc1`, the half-inhibitory concentration (IC50) in assay [1] was determined as 8000 nM.
As for `O=C(O)[C@@]1(N(CCn2cnc3cncnc32)S(=O)(=O)c2ccc(-c3ccc(Cl)cc3)cc2)C[C@H]1c1ccccc1`, the outcome in assay [3] and in assay [4] was inactive. Besides, the concentration for half-maximal inhibition (IC50) in assay [1] was 170 nM.
As for `O=C(O)[C@@H](Cc1ccccc1)N(CCc1ccccc1)S(=O)(=O)c1ccc(-c2ccc(Cl)cc2)cc1`, the IC50 in assay [1] was 7300 nM.
On to `O=C1CCCN1CCN([C@]1(C(=O)O)C[C@H]1c1ccccc1)S(=O)(=O)c1ccc(-c2ccc(Cl)cc2)cc1`, for which the result in assay [3] and in assay [4] was inactive. Also, the half-maximal inhibitory concentration (IC50) in assay [1] is 200 nM.
For `C[C@@](Cc1ccccc1)(C(=O)O)N(CCN1CCCC1=O)S(=O)(=O)c1ccc(-c2ccc(Cl)cc2)cc1`, the inhibition in assay [2] is 0.1%.
Still for that read-out and setting: in the case of `O=C(O)[C@@H](Cc1ccccc1)N(CC1CCCCC1)S(=O)(=O)c1ccc(-c2ccc(Cl)cc2)cc1` it was 22%.
With `O=C(O)[C@@]1(N(CCn2ccnn2)S(=O)(=O)c2ccc(-c3ccc(Cl)cc3)cc2)C[C@H]1c1ccccc1`, the result in assay [3] and in assay [4] was inactive. For the same compound, the IC50 in assay [1] was 270 nM.
For `O=C(O)[C@@H](Cc1ccccc1)N(Cc1ccccc1)S(=O)(=O)c1ccc(-c2ccc(Cl)cc2)cc1`, the inhibition in assay [2] stood at 30%.
As to `O=C(O)[C@@]1(N(CCc2ccncc2)S(=O)(=O)c2ccc(-c3ccc(Cl)cc3)cc2)C[C@H]1c1ccccc1`, the outcome in assay [3] and in assay [4] was inactive. Further, in assay [1], the IC50 stood at 750 nM.
`O=C(O)[C@@]1(N(CCn2cncn2)S(=O)(=O)c2ccc(-c3ccc(Cl)cc3)cc2)C[C@H]1c1ccccc1`: the outcome in assay [3] and in assay [4] was inactive. Besides, in assay [1], the concentration for half-maximal inhibition (IC50) was 180 nM.
Regarding `O=C(O)[C@@H](Cc1ccccc1)NS(=O)(=O)c1ccc(-c2ccc(Cl)cc2)cc1`, the half-inhibitory concentration (IC50) in assay [1] came out at 3200 nM.
For the compound `O=C(O)[C@@H](Cc1ccccc1)N(CCN1CCCC1=O)S(=O)(=O)c1ccc(-c2ccc(Cl)cc2)cc1`, the concentration for half-maximal inhibition (IC50) in assay [1] is 1600 nM.
For the compound `COc1cccn(CCN([C@]2(C(=O)O)C[C@H]2c2ccccc2)S(=O)(=O)c2ccc(-c3ccc(Cl)cc3)cc2)c1=O`, the result in assay [3] and in assay [4] was inactive. The IC50 in assay [1] was determined as 78 nM.
Turning to `O=C(O)[C@@]1(N(CCn2cnnc2)S(=O)(=O)c2ccc(-c3ccc(Cl)cc3)cc2)C[C@H]1c1ccccc1`, the result in assay [3] and in assay [4] was inactive. The IC50 in assay [1] worked out at 190 nM.
For `O=C(O)[C@@]1(N(CCn2nccn2)S(=O)(=O)c2ccc(-c3ccc(Cl)cc3)cc2)C[C@H]1c1ccccc1`, the outcome in assay [3] and in assay [4] was inactive. Moreover, the half-maximal inhibitory concentration (IC50) in assay [1] was 260 nM.
As to `CC(=O)Nc1ccc(-c2ccc(S(=O)(=O)N(CCN3CCCC3=O)[C@]3(C(=O)O)C[C@H]3c3ccccc3)cc2)cc1`, the IC50 in assay [1] worked out at 4500 nM.
Turning to `O=C1CCCN1CCN([C@]1(C(=O)O)C[C@H]1c1ccccc1)S(=O)(=O)c1ccc(-c2ccncc2)cc1`, in assay [2], the inhibition turned out to be 18%.
In the case of `O=C1CCC(=O)N1CCN([C@]1(C(=O)O)C[C@H]1c1ccccc1)S(=O)(=O)c1ccc(-c2ccc(Cl)cc2)cc1`, the outcome in assay [3] and in assay [4] was inactive. The IC50 in assay [1] stood at 310 nM.
`CN([C@@H](Cc1ccccc1)C(=O)O)S(=O)(=O)c1ccc(-c2ccc(Cl)cc2)cc1`: the inhibition in assay [2] is -0.12%.
`O=C(O)[C@@]1(N(CCn2ccnc2)S(=O)(=O)c2ccc(-c3ccc(Cl)cc3)cc2)C[C@H]1c1ccccc1`: the result in assay [3] and in assay [4] was inactive. For the same compound, the half-maximal inhibitory concentration (IC50) in assay [1] came to 320 nM.
As for `COC(=O)c1cncn1CCN([C@]1(C(=O)O)C[C@H]1c1ccccc1)S(=O)(=O)c1ccc(-c2ccc(Cl)cc2)cc1`, the result in assay [3] and in assay [4] was inactive. Also, the half-maximal inhibitory concentration (IC50) in assay [1] turned out to be 230 nM.
On to `O=C1OCCCN1CCN([C@]1(C(=O)O)C[C@H]1c1ccccc1)S(=O)(=O)c1ccc(-c2ccc(Cl)cc2)cc1`, for which the outcome in assay [3] and in assay [4] was inactive. In assay [1], the IC50 turned out to be 180 nM.
Regarding `COC(=O)c1cn(CCN([C@]2(C(=O)O)C[C@H]2c2ccccc2)S(=O)(=O)c2ccc(-c3ccc(Cl)cc3)cc2)cn1`, the result in assay [3] and in assay [4] was inactive. Besides, the IC50 in assay [1] is 73 nM.
